Assay results published in patent publication EP4741386A1 (Jiangsu Yahong Meditech Co., Ltd., priority 2023, dated 2025).

What was measured:
[1] = target: T1, Recombinant human His6-USP1/His6-UAF1 complex protein (Homo sapiens, UniProt O94782); assay: In vitro inhibitory activity against USP1 (Ubiquitin Rhodamine 110 fluorescence detection, 384-well plate); format: biochemical; conditions: Ub-Rho substrate, 1 hour pre-incubation, read after 30 minutes
T1 construct: His6; purchased R&D E-568-050
Summary of the method: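 Fluorescence assay measuring inhibition of recombinant human His6-USP1/His6-UAF1 complex with Ubiquitin-Rhodamine 110 substrate. Compounds held as 50 mM stocks in 100% DMSO and dispensed by acoustic transfer into modified Tris assay buffer.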

MDA-MB-436 = assay: CTG experiment for cell viability (CellTiter-Glo, 96-well plate, 7 days); format: cell-based; conditions: Homo sapiens, MDA-MB-436, 168 h, MDA-MB-436 cells, 7 days culture with compound
Method: Test Example 2: CTG experiment for cell viability
• 1. Object: to screen USP1 inhibitors by a CTG assay, using a 96-well plate. • 2. Materials: • The cells used were MDA-MB-436 (manufacturer: Nanjing Cobioer Biotechnology Co., Ltd.) and cultured in DMEM medium, • CTG (CellTiter-Glo® Luminescent Cell Viability Assay kit) (Promega, Cat. No.: G7572), • 96-well plate (Corning, Cat. No.: 3610). • 3. Compounds: all compounds were dissolved in 100% DMSO to obtain 50 mM stock solutions. • 4. Experimental method: • ① Plating: The cells to be tested were spread into a 96-well plate at a certain density, with 200 µL per well, and 200 µL of cell medium was added to the blank wells. […] The cell plate with the compounds was placed in an incubator at 37°C, and further cultured for 7 days prior to detection. • ④ Assay: The substrate and the buffer of CTG kit were mixed evenly. The cell plate with the compounds in Step ③ was taken out from the incubator, and left at room temperature to equilibrate for 30 minutes. The medium containing the compounds was removed from the cell plate, 100 µL of PBS and 50 µL of CTG reagent were added to each well, shaken and mixed for 3 minutes, and then incubated for 10 minutes at room temperature. The plate was read by a BIotek microplate-reader, with a parameter set to 567 CPM. • 5. Curve fitting
It was the same as that for the enzyme.

T1 sequence (O94782 whole entry): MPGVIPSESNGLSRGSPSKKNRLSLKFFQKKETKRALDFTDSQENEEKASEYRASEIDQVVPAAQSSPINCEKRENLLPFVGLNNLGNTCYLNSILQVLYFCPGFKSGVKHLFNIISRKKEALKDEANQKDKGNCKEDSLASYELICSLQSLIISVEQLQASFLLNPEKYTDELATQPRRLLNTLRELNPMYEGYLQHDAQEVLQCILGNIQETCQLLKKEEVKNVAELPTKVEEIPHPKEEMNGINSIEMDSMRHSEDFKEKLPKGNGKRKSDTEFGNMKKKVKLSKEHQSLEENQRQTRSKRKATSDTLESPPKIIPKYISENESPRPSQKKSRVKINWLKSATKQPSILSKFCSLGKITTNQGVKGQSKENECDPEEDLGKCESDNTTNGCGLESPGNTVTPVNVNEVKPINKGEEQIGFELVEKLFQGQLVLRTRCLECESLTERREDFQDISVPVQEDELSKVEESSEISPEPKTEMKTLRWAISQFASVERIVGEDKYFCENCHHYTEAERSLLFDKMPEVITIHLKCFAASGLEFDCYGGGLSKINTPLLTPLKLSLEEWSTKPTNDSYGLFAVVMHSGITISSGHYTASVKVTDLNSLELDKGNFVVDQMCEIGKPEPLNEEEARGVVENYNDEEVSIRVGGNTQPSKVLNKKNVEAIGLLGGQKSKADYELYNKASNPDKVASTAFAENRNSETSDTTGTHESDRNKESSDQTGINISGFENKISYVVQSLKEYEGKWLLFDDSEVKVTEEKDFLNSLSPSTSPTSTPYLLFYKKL
T1 sequence (Q8TAF3 whole entry partner): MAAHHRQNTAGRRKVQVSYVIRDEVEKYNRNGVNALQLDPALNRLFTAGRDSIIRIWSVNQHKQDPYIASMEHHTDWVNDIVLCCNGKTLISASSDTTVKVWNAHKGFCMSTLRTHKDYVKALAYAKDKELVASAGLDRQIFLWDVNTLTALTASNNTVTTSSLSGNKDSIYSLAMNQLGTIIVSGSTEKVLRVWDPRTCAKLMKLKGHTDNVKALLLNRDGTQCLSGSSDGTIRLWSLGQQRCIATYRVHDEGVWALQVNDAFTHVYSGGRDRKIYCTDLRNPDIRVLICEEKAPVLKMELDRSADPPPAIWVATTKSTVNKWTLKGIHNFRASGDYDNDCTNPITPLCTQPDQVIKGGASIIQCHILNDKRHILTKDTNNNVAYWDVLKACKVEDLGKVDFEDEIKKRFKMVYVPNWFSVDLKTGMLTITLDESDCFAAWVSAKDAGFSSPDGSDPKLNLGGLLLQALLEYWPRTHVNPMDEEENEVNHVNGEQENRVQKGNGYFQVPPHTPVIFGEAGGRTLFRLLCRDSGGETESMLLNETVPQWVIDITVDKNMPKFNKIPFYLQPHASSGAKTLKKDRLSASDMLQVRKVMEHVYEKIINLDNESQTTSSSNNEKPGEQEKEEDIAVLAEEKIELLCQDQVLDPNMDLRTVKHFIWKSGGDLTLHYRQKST

SMILES	IC50 [1] [nM]	IC50 (MDA-MB-436) [nM]
COc1cnc(-c2ccccc2C(C)C)nc1NCc1ccc(-c2nc(C(F)(F)F)cn2C)cc1 [Example 4, 2-(2-Isopropylphenyl)-5-methoxy-N-(4-(1-methyl-4-(trifluoromethyl)-1H-imidazol-2-yl)benzyl)pyrimidin-4-amine]	1.2	0.3
COc1cnc(-c2c(OC)ncnc2C2CC2)nc1NCC12CCC(c3ccc(C(F)(F)F)cn3)(CC1)CC2 [Example 28]	33	55.8
COc1cnc(-c2ccccc2C(C)C)nc1NCc1ccc(-c2ccccn2)cc1 [Example 64, 2-(2-Isopropylphenyl)-5-methoxy-N-(4-(pyridin-2-yl)benzyl)pyrimidin-4-amine]	3.7	6.3
COc1cnc(-c2ccccc2C(C)C)nc1N(C)CC1CCC(c2ccccn2)CC1 (stereo not shown) [Example 61, 2-(2-isopropylphenyl)-5-methoxy-N-methyl-N-((4-(pyridin-2-yl)cyclohexyl)methyl)pyrimidin-4-amine]	11	813
COc1cnc(-c2cccnc2C2CC2)nc1N(C)CC1CCN(c2ccccn2)CC1 [Example 151, 2-(2-Cyclopropylpyridin-3-yl)-5-methoxy-N-methyl-N-((1-(pyridin-2-yl)piperidin-4-yl)methyl)pyrimidin-4-amine]	72	58.4
COc1cnc(-c2c(C)ncnc2OC2CC2)nc1N(C)C[C@H]1CC[C@H](c2nc(C(F)(F)F)cn2C)CC1 [Example S32]	106	235
COc1ncnc(C2CC2)c1-c1nc(NCc2ccc(OCc3ccccn3)cc2)c2occc2n1 [Example 116, 2-(4-Cyclopropyl-6-methoxypyrimidin-5-yl)-N-(4-(pyridin-2-ylmethoxy)benzyl)furo[3,2-d]pyrimidin-4-amine]	19.4	536
COc1cnc(-c2ccccc2N(C)C)nc1NCc1ccc(-n2nc(C(F)(F)F)cc2C)cc1 [Example 160, 2-(2-(Dimethylamino)phenyl)-5-methoxy-N-(4-(5-methyl-3-(trifluoromethyl)-1H-pyrazol-1-yl)benzyl)pyrimidin-4-amine]	3.6	121
COc1ncnc(C2CC2)c1-c1nc(NCc2ccc(-c3nc(C(F)(F)F)cn3C)cc2)c2occc2n1 [Example 35, 2-(4-Cyclopropyl-6-methoxypyrimidin-5-yl)-N-(4-(1-methyl-4-(trifluoromethyl)-1H-imidazol-2-yl)benzyl)furo[3,2-d]pyrimidin-4-amine]	9.6	45
COc1cnc(-c2c(OC)ncnc2C2CC2)nc1NCC12C3C4C1C1C2C3C41c1nc(C(F)(F)F)cn1C1CC1 (stereo not shown) [Example 216, 4'-cyclopropyl-N-((4-(1-cyclopropyl-4-(trifluoromethyl)-1H-imidazol-2-yl)cuban-1-yl)methyl)-5,6'-dimethoxy-[2,5'-bipyrimidin]-4-amine]	1.4	2.7
[2H]C([2H])([2H])N(c1nc(-c2c(OC)ncnc2C2CC2)ncc1OC)C(C)c1ccc(-c2nc(C(F)(F)F)cn2C)cc1 (stereo not shown) [Example S3, 4'-Cyclopropyl-5,6'-dimethoxy-N-(methyl-D3)-N-(1-(4-(1-methyl-4-(trifluoromethyl)-1 H-imidazol-2-yl)phenyl)ethyl)-[2,5'-bipyrimidin]-4-amine]	2.7	0.3
COc1cnc(-c2c(C)cnn2C(C)C)nc1NCc1ccc(-c2nc(C(F)(F)F)cn2C)cc1 [Example 202, 2-(1-Isopropyl-4-methyl-1H-pyrazol-5-yl)-5-methoxy-N-(4-(1-methyl-4-(trifluoromethyl)-1H-imidazol-2-yl)benzyl)pyrimidin-4-amine]	3	15.9
COc1cnc(-c2c(OC)ncnc2C2CC2)nc1N(C)Cc1ccc(-c2ccccn2)cc1 [Example 19, 4'-Cyclopropyl-5,6'-dimethoxy-N-methyl-N-(4-(pyridin-2-yl)benzyl)-[2,5'-bipyrimidin]-4-amine]	24	1.2
COc1cc(-c2nc(C(F)(F)F)cn2C)ccc1CNc1nc(-c2ccccc2C2CC2)ncc1OC [Example 171, 2-(2-Cyclopropylphenyl)-5-methoxy-N-(2-methoxy-4-(1-methyl-4-(trifluoromethyl)-1H-imidazol-2-yl)benzyl)pyrimidin-4-amine]	2.3	84.7
COc1cnc(-c2c(OC)ncnc2C2CC2)nc1N(Cc1ccc(-c2nc(C(F)(F)F)cn2C)cc1)OC [Example 142, N-(4'-Cyclopropyl-5,6'-dimethoxy-[2,5'-bipyrimidin]-4-yl)-O-methyl-N-(4-(1-methyl-4-(trifluoromethyl)-1H-imidazol-2-yl)benzyl)hydroxylamine]	25	50
COc1cnc(-c2c(OC)ncnc2C(F)(F)F)nc1NCC12CCC(c3nc(C(F)(F)F)cn3C(C)C)(CC1)OC2 [Example S15, N-((1-(1-Isopropyl-4-(trifluoromethyl)-1H-imidazol-2-yl)-2-oxabicyclo[2.2.2]oct-4-yl)methyl)-4',5-dimethoxy-6'-(trifluoromethyl)-[2,5'-bipyrimidin]-4-amine]	91	239
COc1ncnc(C2CC2)c1-c1ncc2c(n1)N(CC1CCN(c3nc(C(F)(F)F)cn3C)CC1)CCO2 [Example 20, 2-(4-Cyclopropyl-6-methoxypyrimidin-5-yl)-8-((1-(1-methyl-4-(trifluoromethyl)-1H-imidazol-2-yl)piperidin-4-yl)methyl)-7,8-dihydro-6H-pyrimido[5,4-b][1,4] oxazine]	91.5	533
COc1cnc(-c2c(OC)ncnc2C2CC2)nc1NCc1ccc(-n2nc(C(F)(F)F)cc2C)cc1 [Example 26, 4'-Cyclopropyl-5,6'-dimethoxy-N-(4-(5-methyl-3-(trifluoromethyl)-1H-pyrazol-1-yl)benzyl)-[2,5'-bipyrimidin]-4-amine]	4.6	0.9
COc1cnc(-c2c(OC)ncnc2C2CC2)nc1N(C)C[C@H]1CC[C@H](c2nc(C(F)(F)F)cn2C(C)C)CC1 [Example S26, 4'-Cyclopropyl-N-(((1R,4R)-4-(1-isopropyl-4-(trifluoromethyl)-1H-imidazol-2-yl)cyclohexyl)methyl)-5,6'-dimethoxy-N-methyl-[2,5'-bipyrimidin]-4-amine]	13	14.3
COc1cnc(-c2c(Cl)cnn2C(C)C)nc1NCC1CCN(c2nc(C(F)(F)F)cn2C)CC1 [Example 163, 2-(4-Chloro-1-isopropyl-1H-pyrazol-5-yl)-5-methoxy-N-((1-(1-methyl-4-(trifluoromethyl)-1H-imidazol-2-yl)piperidin-4-yl)methyl)pyrimidin-4-amine]	2.3	13.5
CC(C)c1ccccc1-c1nc(NCc2ccc(-c3ccccn3)cc2)c2occc2n1 [Example 32, 2-(2-isopropylphenyl)-N-(4-(pyridin-2-yl)benzyl)furo [3,2-d] pyrimidin-4-amine]	2.8	336
COc1cnc(-c2ccccc2C(C)C)nc1NC[C@H]1CC[C@H](c2nc(C(F)(F)F)cn2C)CC1 [Example 6, 2-(2-Isopropylphenyl)-5-methoxy-N-(((1R,4R)-4-(1-methyl-4-(trifluoromethyl)-1H-imidazol-2-yl)cyclohexyl)methyl)pyrimidin-4-amine]	1.2	2
COc1cnc(-c2ccccc2C(C)C)nc1NCc1ccc(-n2nc(C(F)(F)F)cc2C)cc1 [Example 7, 2-(2-Isopropylphenyl)-5-methoxy-N-(4-(5-methyl-3-(trifluoromethyl)-1H-pyrazol-1-yl)benzyl)pyrimidin-4-amine]	4.5	102
COc1cnc(-c2c(OC)ncnc2C2CC2)nc1NCC12CCC(c3nc(C(F)(F)F)cn3C3CCC3)(CC1)OC2 [Example S16, N-((1-(1-Cyclobutyl-4-(trifluoromethyl)-1H-imidazol-2-yl)-2-oxabicyclo[2.2.2]oct-4-yl)methyl)-4'-cyclopropyl-5,6'-dimethoxy-[2,5'-bipyrimidin]-4-amine]	34	40.3
COc1cnc(-c2cccnc2C(C)C)nc1NCc1ccc(-n2nc(C(F)(F)F)cc2C)cc1 [Example 158, 2-(2-Isopropylpyridin-3-yl)-5-methoxy-N-(4-(5-methyl-3-(trifluoromethyl)-1H-pyrazol-1-yl)benzyl)pyrimidin-4-amine]	2.1	12.3
C#Cc1cnc(-c2c(OC)ncnc2C2CC2)nc1NCc1ccc(-c2nc(C(F)(F)F)cn2C)cc1 [Example 132, 4'-Cyclopropyl-5-ethynyl-6'-methoxy-N-(4-(1-methyl-4-(trifluoromethyl)-1H-imidazol-2-yl)benzyl)-[2,5'-bipyrimidin]-4-amine]	6	8.8
